Experimental findings from patent US20150174194A1, “METHODS FOR TREATING LIVER TRANSPLANT RECIPIENTS” (AbbVie Inc., priority 2013, published 2015) are described below.

The structures appear in SMILES notation.

Series [1] can be described thus: Immunosuppressant blood concentrations in liver transplant recipients co-dosed with 3D. In kind it is in vivo, human. As for the experimental part: Patients (n=34) on stable TAC or CSA therapy, at least 12 months post-LT, fibrosis stage <F2, received 3D +RBV for 24 weeks. When co-dosed with 3D, it was recommended that the prestudy total CSA daily dose be reduced to one-fifth and given QD. For TAC, a dose of 0.5 mg/7 days or 0.2 mg/3 days was recommended. Subsequent dose and dosing frequency modifications in TAC were made based on the individual TAC levels. Observed CSA trough concentrations (Ctrough) were summarized for CSA recipients (n=5) while TAC data (n=29) were interrogated further to profile on-study TAC Ctroughs. A nonlinear mixed effects model was used to characterize TAC concentration-time profiles using NONMEM software. A one compartment pharmacokinetic (PK) model with first order oral absorption and between subject variability on apparent clearance was used to describe the TAC data. The model estimated TAC PK parameters were used to predict TAC concentration-time profiles in order to evaluate TAC dosing strategies when co-dosed with 3D.

The conditions of series [2]: human, in vivo. The text has this: The Example summarizes the management of concentrations of the immunosuppressants, tacrolimus (TAC) and cyclosporine (CSA) during the treatment.
Where [3] appears, read: co-dosed with 3D, TAC dose 0.2-1 mg, CSA dose 25-75 mg, liver transplant recipients.

Regarding `C=CC[C@@H]1/C=C(\C)C[C@H](C)C[C@H](OC)[C@H]2O[C@@](O)(C(=O)C(=O)N3CCCC[C@H]3C(=O)O[C@H](/C(C)=C/[C@@H]3CC[C@@H](O)[C@H](OC)C3)[C@H](C)[C@@H](O)CC1=O)[C@H](C)C[C@@H]2OC` [TAC, tacrolimus], the “Concentrations with recommended dose modifications” value in series [1] (LT recipients with GT1 HCV infection receiving 3D) is “within the therapeutic range”. Moreover, in series [1] (setting [3]), the “Blood concentration, interquartile range (IQR)” value is 3.3 to 6.6 ng/mL and the “Blood concentration, median” value is 4.6 ng/mL. The “Increase in concentration 24 hours after co-dosing with 3D” value in series [2] came to 17 fold.
